Data on 20 compounds can be found in US11174268B2, “Benzenesulfonamide compouds and their use as therapeutic agents” (Xenon Pharmaceuticals Inc., priority 2016, dated 2021).

Where a name gives a salt, the structure may show the parent alone.

Series [1] concerns the target NaV1.6 (Homo sapiens (Human), UniProt Q9UQD0). Kind of series: Sodium Influx Assay (Flux), NaV1.6.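 Note: Tetracycline-induced cells, compounds applied for one hour at room temperature with modulators holding channels open, IC50 from percent inhibition of sodium influx.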 As to conditions: Trex HEK293 cells, ANG2 dye, inactivated state. The class given is cell-based.
In series [2] the target is NaV1.1 (Homo sapiens (Human), UniProt P35498). In words: Sodium Influx Assay (Flux), NaV1.1.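 Note: channels co-expressed with human β1 subunit and held open by modulators, cells exposed to compounds for one hour at room temperature, IC50 from percent inhibition of influx.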 The class given is cell-based. As to conditions: Trex HEK293 cells, ANG2 dye, inactivated state.
The target of series [3] is NaV1.5 (Homo sapiens (Human), UniProt Q14524). Kind of series: Sodium Influx Assay (Flux), NaV1.5. As to conditions: read-out: Flux NaV1.5 IC50; Trex HEK293 cells, ANG2 dye, inactivated state.
Sequence of NaV1.5 (Q14524 other isoform, or with tags, fused parts or gaps): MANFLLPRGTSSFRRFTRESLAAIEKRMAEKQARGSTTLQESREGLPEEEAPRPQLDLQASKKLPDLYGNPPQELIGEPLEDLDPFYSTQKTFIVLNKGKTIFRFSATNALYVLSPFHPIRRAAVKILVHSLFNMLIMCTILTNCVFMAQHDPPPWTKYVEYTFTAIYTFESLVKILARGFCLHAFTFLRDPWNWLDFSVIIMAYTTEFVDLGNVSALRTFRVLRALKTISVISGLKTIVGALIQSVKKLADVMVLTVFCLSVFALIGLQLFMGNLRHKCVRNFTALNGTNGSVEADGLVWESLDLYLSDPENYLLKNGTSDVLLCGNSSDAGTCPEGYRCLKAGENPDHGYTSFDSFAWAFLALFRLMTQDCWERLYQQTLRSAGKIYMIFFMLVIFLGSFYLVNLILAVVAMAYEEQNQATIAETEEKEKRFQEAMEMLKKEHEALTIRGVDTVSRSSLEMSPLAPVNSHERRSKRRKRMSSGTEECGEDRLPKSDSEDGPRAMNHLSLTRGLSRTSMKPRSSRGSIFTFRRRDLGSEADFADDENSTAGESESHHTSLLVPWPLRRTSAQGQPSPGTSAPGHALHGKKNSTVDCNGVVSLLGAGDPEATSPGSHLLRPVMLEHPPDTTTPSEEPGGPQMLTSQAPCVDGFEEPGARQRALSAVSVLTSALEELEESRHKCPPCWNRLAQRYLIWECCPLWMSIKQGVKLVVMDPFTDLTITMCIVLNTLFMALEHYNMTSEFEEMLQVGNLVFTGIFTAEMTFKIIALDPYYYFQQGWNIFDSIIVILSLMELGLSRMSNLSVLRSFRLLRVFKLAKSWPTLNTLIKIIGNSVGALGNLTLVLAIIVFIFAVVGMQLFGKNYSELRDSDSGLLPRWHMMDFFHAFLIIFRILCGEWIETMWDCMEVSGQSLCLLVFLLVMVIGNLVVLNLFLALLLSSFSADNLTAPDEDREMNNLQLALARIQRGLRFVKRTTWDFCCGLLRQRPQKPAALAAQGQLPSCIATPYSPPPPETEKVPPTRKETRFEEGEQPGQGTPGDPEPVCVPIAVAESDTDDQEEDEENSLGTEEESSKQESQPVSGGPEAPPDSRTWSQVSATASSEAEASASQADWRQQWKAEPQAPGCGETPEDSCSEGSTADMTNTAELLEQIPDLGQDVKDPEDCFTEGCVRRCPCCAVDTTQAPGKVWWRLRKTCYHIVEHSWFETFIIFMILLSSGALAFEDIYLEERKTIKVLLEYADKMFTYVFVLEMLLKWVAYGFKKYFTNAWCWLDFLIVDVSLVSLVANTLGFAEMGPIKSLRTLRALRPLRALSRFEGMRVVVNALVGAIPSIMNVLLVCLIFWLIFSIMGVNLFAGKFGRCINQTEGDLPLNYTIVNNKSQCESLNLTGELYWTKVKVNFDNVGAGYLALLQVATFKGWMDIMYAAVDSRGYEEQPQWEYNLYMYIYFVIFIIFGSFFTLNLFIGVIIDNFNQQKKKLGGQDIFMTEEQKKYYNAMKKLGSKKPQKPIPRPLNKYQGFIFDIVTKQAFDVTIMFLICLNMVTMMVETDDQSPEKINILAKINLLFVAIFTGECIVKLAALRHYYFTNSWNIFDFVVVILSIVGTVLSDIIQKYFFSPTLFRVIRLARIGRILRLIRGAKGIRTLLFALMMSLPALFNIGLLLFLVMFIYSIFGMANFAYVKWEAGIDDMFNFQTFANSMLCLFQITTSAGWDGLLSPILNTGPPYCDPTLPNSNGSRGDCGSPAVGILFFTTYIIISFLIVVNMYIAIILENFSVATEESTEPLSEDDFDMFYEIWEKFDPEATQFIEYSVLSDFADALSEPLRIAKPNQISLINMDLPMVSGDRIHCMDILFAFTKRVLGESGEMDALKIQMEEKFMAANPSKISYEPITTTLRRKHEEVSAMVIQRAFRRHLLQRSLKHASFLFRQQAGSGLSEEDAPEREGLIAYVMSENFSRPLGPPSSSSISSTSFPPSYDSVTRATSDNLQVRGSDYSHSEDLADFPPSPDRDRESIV

For `C[C@H](Nc1cc(F)c(S(=O)(=O)Nc2nccs2)cc1Cl)c1ccc(F)c(F)c1` [Example 53, (S)-5-chloro-4-((1-(3,4-difluorophenyl)ethyl)amino)-2-fluoro-N-(thiazol-2-yl)benzenesulfonamide], the values for the IC50 in series [1], in series [2] and in series [3] were 741 nM, 0.726 µM and 6.89 µM, respectively.

With `CCC(Nc1cc(F)c(S(=O)(=O)Nc2nccs2)cc1Cl)c1ccc2c(c1)CCCC2` (stereo not drawn) [Example 55, 5-chloro-2-fluoro-4-((1-(5,6,7,8-tetrahydronaphthalen-2-yl)propyl)amino)-N-(thiazol-2-yl)benzenesulfonamide], the IC50 in series [1] is 20700 nM; in series [2], 16.1 µM; in series [3], 21.3 µM.

As to `CCC(Nc1cc(F)c(S(=O)(=O)Nc2nccs2)cc1Cl)c1cccnc1` (stereo not drawn) [Example 58, 5-chloro-2-fluoro-4-((1-(pyridin-3-yl)propyl)amino)-N-(thiazol-2-yl)benzenesulfonamide], the figures for the IC50 in series [1], in series [2] and in series [3] were 152 nM, 2.53 µM and 7.09 µM, respectively.

As to `CCC(Nc1cc(F)c(S(=O)(=O)Nc2nccs2)cc1Cl)c1ccncc1` (stereo not drawn) [Example 60, 5-chloro-2-fluoro-4-((1-(pyridin-4-yl)propyl)amino)-N-(thiazol-2-yl)benzenesulfonamide], the figures for the IC50 in series [1], in series [2] and in series [3] were 3340 nM, 1.57 µM and 30 µM, respectively.

Consider `O=S(=O)(Nc1nccs1)c1cc(Cl)c(N[C@H](CN2CC(F)C2)c2ccccc2)cc1F` [Example 68, (S)-5-chloro-4-((2-(3-fluoroazetidin-1-yl)-1-phenylethyl)amino)-2-fluoro-N-(thiazol-2-yl)benzenesulfonamide 2,2,2-trifluoroacetate], for which the results for the IC50 in series [1], in series [2] and in series [3] were 1810 nM, 5.15 µM and 25.3 µM, respectively.

As to `O=S(=O)(Nc1nccs1)c1cc(Cl)c(N[C@H](CN2CC(F)(F)C2)c2ccccc2)cc1F` [Example 69, (S)-5-chloro-4-((2-(3,3-difluoroazetidin-1-yl)-1-phenylethyl)amino)-2-fluoro-N-(thiazol-2-yl)benzenesulfonamide], the figures for the IC50 in series [1], in series [2] and in series [3] were 1590 nM, 3.03 µM and 7.66 µM, respectively.

Regarding `O=S(=O)(Nc1nccs1)c1cc(Cl)c(N[C@@H](CN2CCCC2)c2ccccc2)cc1F` [Example 71, (R)-5-chloro-2-fluoro-4-((1-phenyl-2-(pyrrolidin-1-yl)ethyl)amino)-N-(thiazol-2-yl)benzenesulfonamide], the IC50 amounted to 30000 nM in series [1], 30 µM in series [2] and 30 µM in series [3].

Turning to `O=S(=O)(Nc1nccs1)c1cc(Cl)c(N[C@H](CN2CCOCC2)c2ccccc2)cc1F` [Example 75, (S)-5-chloro-2-fluoro-4-((2-morpholino-1-phenylethyl)amino)-N-(thiazol-2-yl)benzenesulfonamide 2,2,2-trifluoroacetate], the half-maximal inhibitory concentration (IC50) in series [1] was found to be 261 nM; in series [2] it was 13.6 µM; in series [3], 21.7 µM.

For `O=S(=O)(Nc1nccs1)c1ccc(N[C@H]2CCCc3cccnc32)c(Cl)c1` [Example 77, (S)-3-chloro-4-((5,6,7,8-tetrahydroquinolin-8-yl)amino)-N-(thiazol-2-yl)benzenesulfonamide], the figures for the IC50 in series [1], in series [2] and in series [3] were 8080 nM, 7.98 µM and 26.1 µM, respectively.

Take `C[C@H](Nc1ccc(S(=O)(=O)Nc2nccs2)cc1Cl)c1ccccn1` [Example 82, (S)-3-chloro-4-((1-(pyridin-2-yl)ethyl)amino)-N-(thiazol-2-yl)benzenesulfonamide]: the IC50 in series [1] was determined as 2160 nM; in series [2] it was 28.7 µM; in series [3], 30 µM.

For `CC(Nc1ccc(S(=O)(=O)Nc2nccs2)cc1Cl)c1cnn(C)c1` (stereo not drawn) [Example 83, 3-chloro-4-((1-(1-methyl-1H-pyrazol-4-yl)ethyl)amino)-N-(thiazol-2-yl)benzenesulfonamide], the values for the IC50 in series [1], in series [2] and in series [3] were 12300 nM, 11 µM and 30 µM, respectively.

As for `C[C@H](Nc1cc(F)c(S(=O)(=O)Nc2cscn2)cc1Cl)c1ccccc1Cl` [Example 92, (S)-5-chloro-4-((1-(2-chlorophenyl)ethyl)amino)-2-fluoro-N-(thiazol-4-yl)benzenesulfonamide], the IC50 stood at 2530 nM in series [1], 7.45 µM in series [2] and 4.43 µM in series [3].

`O=S(=O)(Nc1nccs1)c1cc(Cl)c(NC2CCCc3ccncc32)cc1F` (stereo not drawn) [Example 93, 5-chloro-2-fluoro-4-((5,6,7,8-tetrahydroisoquinolin-8-yl)amino)-N-(thiazol-2-yl)benzenesulfonamide 2,2,2-trifluoroacetate]: the results for the IC50 in series [1], in series [2] and in series [3] were 270 nM, 0.314 µM and 8.47 µM, respectively.

On to `O=S(=O)(Nc1nccs1)c1cc(Cl)c(NC2CCCc3cnccc32)cc1F` (stereo not drawn) [Example 94, 5-chloro-2-fluoro-4-((5,6,7,8-tetrahydroisoquinolin-5-yl)amino)-N-(thiazol-2-yl)benzenesulfonamide 2,2,2-trifluoroacetate], for which the IC50 was found to be 423 nM in series [1], 0.142 µM in series [2] and 8.62 µM in series [3].

For `C[C@H](Oc1cc(F)c(S(=O)(=O)Nc2nccs2)cc1Cl)c1cc(Cl)ccc1F` [Example 95, (S)-5-chloro-4-(1-(5-chloro-2-fluorophenyl)ethoxy)-2-fluoro-N-(thiazol-2-yl)benzenesulfonamide], the half-maximal inhibitory concentration (IC50) was determined as 761 nM in series [1], 8.11 µM in series [2] and 30 µM in series [3].

Consider `O=S(=O)(Nc1nccs1)c1cc(Cl)c(NC2CCCc3ncccc32)cc1F` (stereo not drawn) [Example 98, 5-chloro-2-fluoro-4-((5,6,7,8-tetrahydroquinolin-5-yl)amino)-N-(thiazol-2-yl)benzenesulfonamide formate], for which the values for the IC50 in series [1], in series [2] and in series [3] were 299 nM, 0.303 µM and 11 µM, respectively.

In the case of `O=S(=O)(Nc1nccs1)c1ccc(NC(c2ccccc2)C2CC2)c(Cl)c1` (stereo not drawn) [Example 99, 3-chloro-4-((cyclopropyl(phenyl)methyl)amino)-N-(thiazol-2-yl)benzenesulfonamide], the figures for the IC50 in series [1], in series [2] and in series [3] were 373 nM, 1.94 µM and 9.27 µM, respectively.

In the case of `O=S(=O)(Nc1nccs1)c1cc(Cl)c(NC(c2ccccc2)C2CC2)cc1F` (stereo not drawn) [Example 100, 5-chloro-4-((cyclopropyl(phenyl)methyl)amino)-2-fluoro-N-(thiazol-2-yl)benzenesulfonamide], the results for the IC50 in series [1], in series [2] and in series [3] were 216 nM, 0.667 µM and 6.42 µM, respectively.

Regarding `O=S(=O)(Nc1nccs1)c1cc(Cl)c(N[C@@H]2CCCc3ccccc32)cc1F` [Example 102, (R)-5-chloro-2-fluoro-4-((1,2,3,4-tetrahydronaphthalen-1-yl)amino)-N-(thiazol-2-yl)benzenesulfonamide], the IC50 in series [1] is 1670 nM; in series [2], 0.941 µM; in series [3] it was 5.97 µM.

For `O=S(=O)(Nc1nccs1)c1cc(Cl)c(NC2(c3cccc(F)c3)CCC2)cc1F` [Example 106, 5-chloro-2-fluoro-4-((1-(3-fluorophenyl)cyclobutyl)amino)-N-(thiazol-2-yl)benzenesulfonamide], the IC50 in series [1] came out at 533 nM; in series [2] it was 3.7 µM; in series [3], 10.1 µM.
